Source: patent US20100160454A1, “ANTIMICROBIAL AGENTS, COMPOSITIONS AND PRODUCTS CONTAINING THE SAME, AND METHODS OF USING THE COMPOSITIONS AND PRODUCTS” (Eastman Chemical Company, priority 2008, published 2010)

Legend:
Type in all cases: cell-based
[1] = system: Candida albicans ATCC 10231; experiment: Determination of MIC and MLC in test broth; settings: Candida albicans ATCC 10231, 30-day subculture
Experimental: (§1) Two antimicrobial endpoints were investigated. The minimum inhibitory concentration (MIC), which identifies the lowest concentration of test material at which growth for a specific organism is inhibited (by a minimum of 3 log units), reflects “biostatic activity”. The minimum lethal concentration (MLC), or lowest concentration that kills the organism and at which subculturing with growth is not possible, reflects “biocidal activity”. 1,4-CHDM and propylene glycol (PG) were added to previously sterilized screw-cap glass tubes and diluted with Peptone Water Broth with 2 wt % Dextrose (=test broth) to the following dilutions (weight percent): 0.05, 0.075, 0.125, 0.25, 0.5, 0.75, 1.25, 2.5, 5.0, 7.5, 10.0, 15.0, 20.0.
(§2) Each of 12 sets of the above test tubes were challenged with specific organisms (see Table 5) to produce a contamination of between 1.0×10^5 cfu/g and 1.0×10^6 cfu/g in the test broth to which no 1,4-CHDM or propylene glycol had been added. These challenge organisms were prepared in TSB broth, allowed to grow for 72 hours at 35° C.+/−2° C., centrifuged at 2500 rpm for 5 minutes, and the supernatant broth was removed. The microbial pellet was then re-diluted with sterile buffered water to a turbidity that matched previous 1.0×10^6 cfu/g concentrations of that organism's specific growth curve. This challenge was repeated on day 3. Plate counts of both challenges enumerated to within 1.0×10^5+/−5,000 cfu/g after 7 days incubation at 35° C.+/−2° C.
(§3) These tubes were mixed well by inversion (minimum of 25 inversions) and incubated at 35° C.+/−2° C. The tubes were inverted again (minimum of 25 times) on the third and seventh day of incubation and prior to each subculture.
(§4) These subcultures were incubated under optimal conditions and nutrition for no less than 5 days. Subcultures of 0.1 ml, undiluted and diluted 1:10, 1:100, . . . , and 1:10,000, were transferred to plates using the spread plate method onto Plate Count Agar; and SAB Dextrose Agar in addition for the Candida and Aspergillus species; and incubated as follows: 35° C.+/−2° C. for the Plate Count Agar and 22° C.+/−2° C. for the SAB Dextrose plates of Candida albicans and Aspergillus niger. Negative results were not reported before 7 days incubation and counts were performed after no less than 5 days incubation. Counts of Candida and Aspergillus species were made on the agar representing the highest count observed, usually the SAB Dextrose.

[2] = system: Escherichia coli ATCC 25922; experiment: Determination of MIC and MLC in test broth; settings: Escherichia coli ATCC 25922, 30-day subculture
Experimental: as §1, §2, §3, §4

[3] = system: Penicillium notatum ATCC 36740; experiment: Determination of MIC and MLC in test broth; settings: Penicillium notatum ATCC 36740, 30-day subculture
Experimental: as §1, §2, §3, §4

[4] = system: Pseudomonas aeruginosa ATCC 27853; experiment: Determination of MIC and MLC in test broth; settings: Pseudomonas aeruginosa ATCC 27853, 30-day subculture
Experimental: as §1, §2, §3, §4

[5] = system: Staphylococcus aureus ATCC 25923; experiment: Determination of MIC and MLC in test broth; settings: Staphylococcus aureus ATCC 25923, 30-day subculture
Experimental: as §1, §2, §3, §4

[6] = system: Malassezia furfur (ATCC 96809); experiment: Challenge testing against pathogenic fungi, growth rating in broth tubes; set-up: key: 0: No visible growth; 1: Some growth in tube; 2: Moderate growth in tube; 3: Good growth in tube; 4: Extreme growth in tube
Experimental: (§5) Both Microsporum canis and Trichophyton rubrum were grown on Sabouraud dextrose broth, while Malassezia fufur was grown in Sabouraud dextrose broth supplemented with 2% (v/v) of olive oil and 0.2% (v/v) of Tween™ 80; incubation was at 22°±2° C. under continuous agitation by stirring for 10 days. The organisms were grown to a density of between 1.0×10^3 to 1.0×10^4 cfu/g. The actual inoculation cell density of these challenges were determined by diluting in sterile buffer water and (spread-plate method) plating for enumeration.
(§6) Challenge organisms were used to inoculate tubes of 1,4-CHDM-D90 test concentrations prepared in Sabouraud dextrose broth (or Sabouraud dextrose broth supplemented with olive oil-Tween™ 80 with M. furfur). The inoculations were in the amount of 1.5 mL aliquots of each culture with static incubation at 22±2° C. Subcultures were made at 3-, 14- and 30-day increments. All challenges were conducted in triplicate. In the case of M. canis, the growth response was assessed by the visual presence/absence of growth in the tubes; in the case of T. rubrum, a respiratory (redox) dye (0.2% w/v aqueous INT solution: 2-[4-iodophenyl)-3-4-nitrophenyl]-5-phenyl tetrazolium chloride) was added to the tubes, turning red if the organism was viable; and, finally, in the case of M. furfur, the growth response was assessed based upon pellicle formation in the tubes at the meniscus. The test formulations and challenge test results, as well as 30-day MICs (Minimum Inhibitory Concentration), are in Tables 7-9 for the three organisms using the following growth rating system:
(§7) • 0: No visible growth • 1: Some growth in tube • 2: Moderate growth in tube • 3: Good growth in tube • 4: Extreme growth in tube

[7] = system: Microsporum canis (ATTC 9084); experiment: as above; set-up: key: 0: No visible growth; 1: Some growth in tube; 2: Moderate growth in tube; 3: Good growth in tube; 4: Extreme growth in tube
Experimental: as §5, §6, §7

[8] = system: Trichophyton rubrum (ATCC 10218); experiment: as above; set-up: key: 0: No visible growth; 1: Some growth in tube; 2: Moderate growth in tube; 3: Good growth in tube; 4: Extreme growth in tube
Experimental: as §5, §6, §7

With `CC(O)CO` (stereo not shown) [PG, propylene glycol] the “MIC 30 DAYS” value [1] was 20 wt %, the “MLC 30 DAYS” value [1] was >20 wt % and the “MIC 30 DAYS” value [2] was 10 wt %. For the same molecule, the “MLC 30 DAYS” value [2] was >20 wt %, the “MIC 30 DAYS” value [3] was >20 wt % and the “MLC 30 DAYS” value [3] was >20 wt %. The “MIC 30 DAYS” value [4] was 10 wt %, the “MLC 30 DAYS” value [4] was >20 wt % and the “MIC 30 DAYS” value [5] was 20 wt %. For the same molecule, the “MLC 30 DAYS” value [5] was >20 wt %, the “M. furfur growth rating, 3 day” value ([6]; 0.5% weight/volume) was 0 and the “M. furfur growth rating, 14 day” value ([6]; 0.5% weight/volume) was 3. The “M. furfur growth rating, 30 day” value ([6]; 0.5% weight/volume) was 3, the “M. furfur growth rating, 3 day” value ([6]; 1.25% weight/volume) was 0 and the “M. furfur growth rating, 14 day” value ([6]; 1.25% weight/volume) was 3. For the same molecule, the “M. furfur growth rating, 30 day” value ([6]; 1.25% weight/volume) was 3, the “M. furfur growth rating, 3 day” value ([6]; 2.5% weight/volume) was 0 and the “M. furfur growth rating, 14 day” value ([6]; 2.5% weight/volume) was 3. The “M. furfur growth rating, 30 day” value ([6]; 2.5% weight/volume) was 3, the “M. furfur growth rating, 3 day” value ([6]; 5.0% weight/volume) was 0 and the “M. furfur growth rating, 14 day” value ([6]; 5.0% weight/volume) was 0. The “M. furfur growth rating, 30 day” value ([6]; 5.0% weight/volume) was 3, the “M. canis growth rating, 3 day” value ([7]; 0.5% weight/volume) was 2 and the “M. canis growth rating, 14 day” value ([7]; 0.5% weight/volume) was 1. For the same molecule, the “M. canis growth rating, 30 day” value ([7]; 0.5% weight/volume) was 2, the “M. canis growth rating, 3 day” value ([7]; 1.25% weight/volume) was 2 and the “M. canis growth rating, 14 day” value ([7]; 1.25% weight/volume) was 1. For the same molecule, the “M. canis growth rating, 30 day” value ([7]; 1.25% weight/volume) was 1, the “M. canis growth rating, 3 day” value ([7]; 2.5% weight/volume) was 1 and the “M. canis growth rating, 14 day” value ([7]; 2.5% weight/volume) was 1. For the same molecule, the “M. canis growth rating, 30 day” value ([7]; 2.5% weight/volume) was 2, the “M. canis growth rating, 3 day” value ([7]; 5.0% weight/volume) was 1 and the “M. canis growth rating, 14 day” value ([7]; 5.0% weight/volume) was 1. For the same molecule, the “M. canis growth rating, 30 day” value ([7]; 5.0% weight/volume) was 2, the “T. rubrum growth rating, 3 day” value ([8]; 0.5% weight/volume) was 0 and the “T. rubrum growth rating, 14 day” value ([8]; 0.5% weight/volume) was 1. For the same molecule, the “T. rubrum growth rating, 30 day” value ([8]; 0.5% weight/volume) was 1, the “T. rubrum growth rating, 3 day” value ([8]; 1.25% weight/volume) was 1 and the “T. rubrum growth rating, 14 day” value ([8]; 1.25% weight/volume) was 0. The “T. rubrum growth rating, 30 day” value ([8]; 1.25% weight/volume) was 1, the “T. rubrum growth rating, 3 day” value ([8]; 2.5% weight/volume) was 1 and the “T. rubrum growth rating, 14 day” value ([8]; 2.5% weight/volume) was 0. For the same molecule, the “T. rubrum growth rating, 30 day” value ([8]; 2.5% weight/volume) was 1, the “T. rubrum growth rating, 3 day” value ([8]; 5.0% weight/volume) was 1 and the “T. rubrum growth rating, 14 day” value ([8]; 5.0% weight/volume) was 0. For the same molecule, the “T. rubrum growth rating, 30 day” value ([8]; 5.0% weight/volume) was 1.

In the case of `O=C([O-])CN(CCN(CC(=O)[O-])CC(=O)O)CC(=O)O.[Na+].[Na+]` [EDTA, Na2EDTA], the “M. furfur growth rating, 3 day” value ([6]; 0.5% weight/volume) is reported as 0, the “M. furfur growth rating, 14 day” value ([6]; 0.5% weight/volume) is reported as 0 and the “M. furfur growth rating, 30 day” value ([6]; 0.5% weight/volume) is reported as 0. For the same molecule, the “M. furfur growth rating, 3 day” value ([6]; 1.25% weight/volume) was 0, the “M. furfur growth rating, 14 day” value ([6]; 1.25% weight/volume) was 0 and the “M. furfur growth rating, 30 day” value ([6]; 1.25% weight/volume) was 0. The “M. furfur growth rating, 3 day” value ([6]; 2.5% weight/volume) was 0, the “M. furfur growth rating, 14 day” value ([6]; 2.5% weight/volume) was 0 and the “M. furfur growth rating, 30 day” value ([6]; 2.5% weight/volume) was 0. For the same molecule, the “M. furfur growth rating, 3 day” value ([6]; 5.0% weight/volume) was 0, the “M. furfur growth rating, 14 day” value ([6]; 5.0% weight/volume) was 0 and the “M. furfur growth rating, 30 day” value ([6]; 5.0% weight/volume) was 0. For the same molecule, the “M. canis growth rating, 3 day” value ([7]; 0.5% weight/volume) was 2, the “M. canis growth rating, 14 day” value ([7]; 0.5% weight/volume) was 1 and the “M. canis growth rating, 30 day” value ([7]; 0.5% weight/volume) was 0. The “M. canis growth rating, 3 day” value ([7]; 1.25% weight/volume) was 2, the “M. canis growth rating, 14 day” value ([7]; 1.25% weight/volume) was 1 and the “M. canis growth rating, 30 day” value ([7]; 1.25% weight/volume) was 0. The “M. canis growth rating, 3 day” value ([7]; 2.5% weight/volume) was 2, the “M. canis growth rating, 14 day” value ([7]; 2.5% weight/volume) was 1 and the “M. canis growth rating, 30 day” value ([7]; 2.5% weight/volume) was 0. For the same molecule, the “M. canis growth rating, 3 day” value ([7]; 5.0% weight/volume) was 2, the “M. canis growth rating, 14 day” value ([7]; 5.0% weight/volume) was 0 and the “M. canis growth rating, 30 day” value ([7]; 5.0% weight/volume) was 0. For the same molecule, the “T. rubrum growth rating, 3 day” value ([8]; 0.5% weight/volume) was 1, the “T. rubrum growth rating, 14 day” value ([8]; 0.5% weight/volume) was 0 and the “T. rubrum growth rating, 30 day” value ([8]; 0.5% weight/volume) was 0. For the same molecule, the “T. rubrum growth rating, 3 day” value ([8]; 1.25% weight/volume) was 0, the “T. rubrum growth rating, 14 day” value ([8]; 1.25% weight/volume) was 0 and the “T. rubrum growth rating, 30 day” value ([8]; 1.25% weight/volume) was 0. The “T. rubrum growth rating, 3 day” value ([8]; 2.5% weight/volume) was 1, the “T. rubrum growth rating, 14 day” value ([8]; 2.5% weight/volume) was 0 and the “T. rubrum growth rating, 30 day” value ([8]; 2.5% weight/volume) was 0. The “T. rubrum growth rating, 3 day” value ([8]; 5.0% weight/volume) was 1, the “T. rubrum growth rating, 14 day” value ([8]; 5.0% weight/volume) was 0 and the “T. rubrum growth rating, 30 day” value ([8]; 5.0% weight/volume) was 0.
